{"source": "patent US11986466B2", "about": "“Methods of treating solid tumors with CCR2 antagonists” (CHEMOCENTRYX, INC., priority 2018, dated 2024)", "key": {"MBL2 tumors [1]": {"system": "MBL2 tumors", "experiment": "MBL2/DNFB mouse ear skin T cell lymphoma model: tumor growth (ear thickness, ear weight)", "type": "in vivo, C57BL/6 mice", "method": "Animals and cell lines. Female C57BL/6 mice (6-8 weeks old) were purchased from Charles River (Hollister, CA) and housed in animal facilities at University of California Davis (UCDAVIS), Sacramento, CA All animal experiments were conducted in accordance with the guidelines and approval of the Institutional Animal Care and Usage Committee at UCDAVIS. The MBL2 cell line is an established cell line derived from Moloney MuLV-induced T-cell lymphoma in C57BL/6 mice, in which the gag gene was deleted from the genome in order to lower virus-dependent immunogenicity. MBL2 cells were cultured in DMEM (Invitrogen, Carlsbad, CA) with 10% heat-inactivated FBS.\nEstablishment of MBL2 tumors in mice. The method of establishing mouse ear skin tumors was previously described, Briefly, PBS-washed MBL2 cells (4×10^5 in 20 μl PBS) were injected into the dermal space under the central dorsal surface of the ears and above the cartilage plane using a 28 g needle. Mice were then topically treated one time with DNFB (1-Fluoro-2, 4-dinitrobenzene, 0.5% in a vehicle consisting of 4:1 (v/v) acetone and olive oil, 10 μl/ear) (Sigma, St. Louis, CA) on dorsal ear skins. Tumor growth was assessed for maximum ear thickness using a digital caliper, or by weight for the whole tumor-bearing ears removed from ear baseline. The endpoint determination is based on the allowed maximal ear tumor size, or local erosion and bleeding, which usually occurred within two weeks after implantation.\nTumor treatment by CCR2 antagonist and/or anti-PD1. Small molecule compounds, Compound 1, either in a high concentration (6 mg/ml) or a low concentration (2 mg/ml), as well as vehicle control were all provided by ChemoCentryx (Mountain View, CA) in a lab-ready formulation. In therapeutic application, oral administration through gavage of Compound 1 or vehicle started on the same day of MBL2 cell inoculation, usually two hours apart. Compound 1 was administrated once a day (60 mg/kg for high dose or 20 mg/kg for low dose) for up to two weeks following tumor implantation. […]"}, "[2]": {"experiment": "Plasma concentration of Compound 1 after daily oral dosing", "type": "in vivo, mice", "method": "(§1) (A) Mice were orally dosed for Compound 1 daily at a lower concentration (20 mg/kg per day) or a higher concentration (60 mg/kg per day) for consecutive ten days. Plasma concentration of Compound 1 was detected by chemistry analyst 24 hours after the last dosing. (B) The same groups of mice in panel (A) were recorded for body weight before the first and after the last oral administration (n=4 per group). Statistical analysis is performed by two-way ANOVA in GraphPad PRISM (GraphPad Software, San Diego, CA).\n(§2) Compound 1 is an orally-bioavailable CCR2 antagonist. […] For the experimental treatment regimen, we administered Compound 1 daily via oral gavage, starting on the same day of tumor implantation (FIG. 1a). […] Thus, Compound 1 blocked tumor growth in an inflammation and macrophages dependent model of T cell lymphoma."}, "[3]": {"experiment": "Body weight and tolerability after daily oral dosing", "type": "in vivo, mice", "settings": "20 or 60 mg/kg daily oral", "method": "as §1, §2"}, "[4]": {"system": "CD11b+/F4/80+ macrophages", "experiment": "Flow cytometry of macrophages in ear tumor microenvironment", "type": "in vivo, C57BL/6 mice", "description": "(§3) FIG. 3A-D. Compound 1 specifically targets macrophages, but not neutrophils. (A, B) Macrophages, defined by the CD11b+/F4/80+ cell populations in flow analysis, were presented in either percentage or absolute numbers in ear TME after only two daily doses of Compound 1 (dosages are indicated in the figure, * p<05, ** p<01 vs vehicle control). (C, D) Single cell suspension from the same tissues as in (A) were stained with antibodies for CD11b, F4/80, CCR2, Ly6G, and Ly6C. Cells gated on CD11b were further analyzed to differentiate the subpopulations. Solid circles indicate the cells which are targeted by Compound 1. Dotted circles circles indicate the cells which are not blocked by Compound 1.\n(§4) Flow cytometry for mouse ear tissues, lymph nodes, and spleens. Anti-mouse CD45 (clone 30-F11), CD11b (M1/70), F4/80 (BM8), Ly6G (1A8), Ly6C (HK1.4), IFN-γ (XMG1.2) and CD8 (5H10-1) Abs were purchased from BioLegend (San Diego, CA). Ears or tumor tissues were digested to obtain skin cell suspensions as described, Lymph nodes or spleens were directly minced and filtered through cell strainers with 100 μm micron pores (Thermo Fisher Scientific, Waltham, MA). Red blood cells in the spleen samples were removed by RBC lysis buffer (BioLegend). Intracellular staining was done after incubating cells for 4 h with brefeldin A and PMA/ionomycin as described. Flow cytometry was performed using an Acuri C6 or LSR II (BD Biosciences, San Jose, CA) in conjunction with FlowJo analysis software (Tree Star, San Carlos, CA)."}, "[5]": {"system": "neutrophil-like cells (CD11b- and Ly6G-positive cells)", "experiment": "Flow cytometry of neutrophils / neutrophil-like cells in ear tumor microenvironment", "type": "in vivo, C57BL/6 mice", "description": "as §3\n(§5) FIG. 4A-D. Enhanced inflammation is associated with CCR2 antagonism by Compound 1 in the tumor microenvironment. (A, B) Ear tissues were collected from mice treated by Compound 1 (60 mg/kg) or vehicle on day 7. Representative images for HE sections and IHC staining with anti-F4/80 were shown for the ear tissues from Compound 1 and vehicle treated group. (C, D) Ears from day 7 were also analyzed by flow cytometry to quantify the numbers of the two major myeloid subpopulations in TME with antibodies for CD11b, F4/80 and Ly6G.\nas §4"}, "[6]": {"experiment": "H&E histology and appearance of tumor-bearing ears", "type": "in vivo, C57BL/6 mice", "settings": "day 7, 60 mg/kg", "method": "as §5\n(§6) H&E and Histoimmunochemistry. After mouse ear tumors were surgically removed at the ear base, the ear sample was cut into two parts along the long axis and placed in RNA later for RNA extraction or into 10% formalin for hematoxylin and eosin (H&E) staining or immunohistochemical staining with purified mouse antibodies (anti-CD8 and anti-F4/80 from Biolegend, San Diego, CA)."}, "F4/80+ macrophages": {"system": "F4/80+ macrophages", "experiment": "IHC staining of ear tissue with anti-F4/80", "type": "in vivo, C57BL/6 mice", "settings": "day 7, 60 mg/kg oral daily", "method": "as §5, §6"}, "[7]": {"system": "cytokines and biomarkers produced from the TME", "experiment": "Quantitative RT-PCR of cytokines and biomarkers in ear tissues", "type": "in vivo, C57BL/6 mice", "method": "FIG. 5A-C. Compound 1 treatment altered the expression of cytokines and biomarkers produced from the TME. Quantitative RT-PCR was performed for the ear tissues collected on day 7. Genes that are involved in cancer inflammation and immunity crosstalk are selectively detected. Comparative expression is performed between the Compound 1 and vehicle treated groups. […] Gene expression values are normalized to endogenous expression of GAPDH (* p<05, ** p<0.01; n=3 mice per group).\nFIG. 6. Compound 1 treatment altered the expression of cytokines and biomarkers produced from the TME. Quantitative RT-PCR was performed for the ear tissues collected on day 7. Genes that are involved in immune suppression and anti-inflammation are selectively detected. Comparative expression is performed between the Compound 1 and vehicle treated groups. Gene expression values are normalized to endogenous expression of GAPDH (n=3 mice per group).\nQuantitative real-time PCR. RNA (<2 μg per sample) was converted into cDNA with the high-capacity first-strand cDNA Kit (Qiagen). Real-time PCR was performed on a StepOne Plus Real-time PCR system (Applied Biosystem, Carlsbad, CA). QPCR primer pairs were purchased from Integrated DNA technologies (Coralville, Iowa)."}, "CD8+ T cells": {"system": "CD8+ T cells", "experiment": "IHC staining of tumor tissue with CD8a antibody", "type": "in vivo, C57BL/6 mice", "settings": "two weeks of treatment, dose-dependent, vs untreated and vehicle", "method": "(§7) FIG. 7A-E. CD8 T cells are compulsory in CCR2 antagonist-mediated anti-tumor immunity. (A) Tumor tissues were collected from mice euthanized after two weeks of treatment. Groups are as indicated in the graph. IHC staining with CD8a antibody was performed. The numbers of CD8 positive T cells were counted by taking three random images of HPF (high power field) in each section from all four mice per group. (B) Scheme for neutralizing CD8 T cells along with Compound 1 treatment. Neutralizing anti-CD8 or rat-IgG2a was administrated via intraperitoneal injection one day before MBL2 tumor inoculation followed by a second dose after 7 days. Tumor formation was examined in two weeks after the treatment with Compound 1 or vehicle. (C) Mice treated in experiment (B) were euthanized on day 3 for flow analysis of the cervical draining lymph nodes in order to determine the effect of CD8 depletion (three mice per group). (D) Mice were euthanized on day 15 after the two weeks of Compound 1/vehicle treatment with or without CD8 T cell neutralization. Ear thickness is measured for presenting tumor size. (E) Draining lymph nodes are also measured for the lymph node metastasis (n=4).\nH&E and Histoimmunochemistry. […]"}, "MBL2 tumors [8]": {"system": "MBL2 tumors", "experiment": "Cervical draining lymph node size (lymph node metastasis) in DNFB-MBL2 model", "type": "in vivo, C57BL/6 mice", "settings": "day 15, Compound 1 alone", "method": "as §7\nNext, we administrated neutralizing CD8 antibodies by IP injection concurrently with the Compound 1 treatment (FIG. 7B). […]"}, "[9]": {"system": "pancreatic ductal adenocarcinoma (PDAC)", "settings": "orally dosed, phase 1b study; cited from earlier work"}, "[10]": {"settings": "day 15, 20 or 60 mg/kg oral daily, vs untreated or vehicle"}, "[11]": {"settings": "ear tumors, treated two days after tumor implantation, 20 or 60 mg/kg oral"}, "[12]": {"settings": "day 7, vs vehicle, normalized to GAPDH"}}, "note": "Entries after “also recorded” stand apart in the source; their conditions may differ."}
{"smiles": "C[C@H]1CN([C@@H]2CC[C@@](C(=O)N3COc4c(cc(C(F)(F)F)cc4C(F)(F)F)C3)(C3CC3)OC2)CC[C@@H]1c1cccc(C(=O)O)c1", "note": "[Compound 1]", "values": [{"measurement": "ear thickness", "setting": "MBL2 tumors [1]; [10]", "result": "significantly reduced"}, {"measurement": "ear weight", "setting": "MBL2 tumors [1]; [10]", "result": "significantly reduced"}, {"measurement": "tumor growth / tumor size", "setting": "MBL2 tumors [1]; single agent, two weeks of treatment, vs vehicle/control", "result": "smaller and sometimes nearly eradicated; also recorded: visible reduction in tumor growth; also recorded: inhibits tumor growth; also recorded: effectively delay the tumor growth, but was unable to eliminate the tumors"}, {"measurement": "plasma concentration", "setting": "[2]; 20 or 60 mg/kg daily oral gavage for ten days, 24 hours after last dosing", "result": "correlated well to the feeding doses; also recorded: dose-dependently absorptive"}, {"measurement": "oral bioavailability", "setting": "[2]; oral", "result": "orally-bioavailable"}, {"measurement": "tolerability / side effects", "setting": "[3]", "result": "well tolerated; also recorded: without side effects"}, {"measurement": "weight changes", "setting": "[3]; ten days", "result": "≤ 20", "unit": "%"}, {"measurement": "CD11b+/F4/80+ macrophages, absolute numbers in whole ears", "setting": "[4]; [11]", "result": "significantly decreased"}, {"measurement": "CD11b+/F4/80+ macrophages, percentage values of live cells", "setting": "[4]; [11]", "result": "significantly decreased"}, {"measurement": "macrophages in the skin (flow cytometry)", "setting": "[4]; oral administration for two days after tumor initiation, vehicle 17.7%", "result": "2.78 % of total leukocytes"}, {"measurement": "accumulation of neutrophils in the TME", "setting": "[5]; after two daily doses", "result": "not blocked"}, {"measurement": "relative abundance of neutrophils in the TME", "setting": "[5]; after two daily doses", "result": "increased"}, {"measurement": "numbers of neutrophils / neutrophil-like cells in the TME", "setting": "[5]; one week (day 7) of treatment, 60 mg/kg oral daily, vs vehicle, 60 mg/kg", "result": "significantly larger numbers of neutrophils; also recorded: significant increase"}, {"measurement": "tumor cell necrosis", "setting": "[6]", "result": "results in tumor cell necrosis"}, {"measurement": "macrophages in the TME by IHC anti-F4/80", "setting": "F4/80+ macrophages", "result": "largely absent"}, {"measurement": "IL-10 expression in ears", "setting": "[7]; day 7, vs controls", "result": "similarly expressed"}, {"measurement": "TGF-beta expression in ears", "setting": "[7]; day 7, vs controls", "result": "similarly expressed"}, {"measurement": "CCL2 expression in the TME", "setting": "[7]; day 7, vs vehicle", "result": "Upregulation"}, {"measurement": "CCL7 expression in the TME", "setting": "[7]; day 7, vs vehicle", "result": "Upregulation"}, {"measurement": "CXCL1/2 expression in the TME", "setting": "[7]; day 7, vs vehicle", "result": "noticeably increased"}, {"measurement": "IL-1beta expression in ears", "setting": "[7]; day 7, vs vehicle", "result": "upregulated to variable extents"}, {"measurement": "IL-6 expression in ears", "setting": "[7]; day 7, vs vehicle", "result": "upregulated to variable extents"}, {"measurement": "IL-12 expression in ears", "setting": "[7]; day 7, vs vehicle", "result": "found to increase"}, {"measurement": "IL-17a expression in ears", "setting": "[7]; day 7, vs vehicle", "result": "upregulated to variable extents"}, {"measurement": "S100A8/9 expression in the TME", "setting": "[7]; day 7, vs vehicle", "result": "noticeably increased"}, {"measurement": "granzyme B expression in ears", "setting": "[7]; day 7, vs vehicle", "result": "consistent upregulation"}, {"measurement": "CXCL10 mRNA level in ears", "setting": "[7]; [12]", "result": "significantly increased"}, {"measurement": "CXCL11 mRNA level in ears", "setting": "[7]; [12]", "result": "significantly increased"}, {"measurement": "IFN-γ mRNA level in ears", "setting": "[7]; [12]", "result": "significantly increased"}, {"measurement": "numbers of CD8+ T cells in the tumor/TME (IHC)", "setting": "CD8+ T cells", "result": "significantly larger numbers of CD8+ T cells; also recorded: markedly increased"}, {"measurement": "cervical draining lymph node size", "setting": "MBL2 tumors [8]", "result": "reduction of cervical LN size"}]}
{"smiles": "O=C(NCC(=O)N1CC[C@H](N[C@H]2CC[C@@](O)(c3ccc(-c4ncccn4)cn3)CC2)C1)c1cccc(C(F)(F)F)c1", "note": "[PF-04136309]", "values": [{"measurement": "TAM infiltration", "setting": "[9]", "result": "reduction in TAM infiltration"}, {"measurement": "anti-tumor immune response", "setting": "[9]", "result": "endogenous anti-tumor immune response"}]}
